PMC2119337 (The Journal of Experimental Medicine, 1992)
No end group written: not given here.

Assays:
[1] = target: T1, A alpha uA beta u (MHC class II molecules) (Mus musculus, UniProt P06344+P14438); conditions: cited from earlier work
T1 sequence (P14438 1-227): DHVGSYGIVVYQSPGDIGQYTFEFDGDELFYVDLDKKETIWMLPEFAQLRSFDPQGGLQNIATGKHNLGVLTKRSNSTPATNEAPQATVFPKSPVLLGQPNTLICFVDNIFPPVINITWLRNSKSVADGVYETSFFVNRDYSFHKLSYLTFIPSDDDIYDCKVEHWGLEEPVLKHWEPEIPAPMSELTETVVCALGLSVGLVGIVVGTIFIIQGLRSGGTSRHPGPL
T1 sequence (P06344 28-263): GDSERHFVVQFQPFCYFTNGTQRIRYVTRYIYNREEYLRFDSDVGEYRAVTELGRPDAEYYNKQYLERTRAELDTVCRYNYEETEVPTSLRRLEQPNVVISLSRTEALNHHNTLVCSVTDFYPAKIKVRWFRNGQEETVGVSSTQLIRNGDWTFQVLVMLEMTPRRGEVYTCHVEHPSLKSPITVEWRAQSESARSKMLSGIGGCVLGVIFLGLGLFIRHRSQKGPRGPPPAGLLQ

(PL/J x SJL/J)F1 mice [2] = format: in vivo; conditions: Table 1, observed 30-35 d, three experiments
(PL/J x SJL/J)F1 mice [3] = test: Inhibition of EAE by coimmunization of competitor peptide with Ac1-11; format: in vivo; conditions: Table 2, Ac1-11 25 nmol alone or with competitor 500 nmol

Ac1-11: immunodominant N-terminal myelin basic protein (MBP) peptide, wild type (Ac-MGNHSGKRELS; UniProt P04370 1-11, looked up, fragment)
Binding to AαuAβu [1]: poor binder
Incidence of EAE (mice with disease/total) ((PL/J x SJL/J)F1 mice [2]; 100 nmol peptide in CFA s.c.): 27/31
Percent incidence of EAE ((PL/J x SJL/J)F1 mice [2]; […]): 87%
Day of onset ((PL/J x SJL/J)F1 mice [3]): 12.75
Mean clinical scores ((PL/J x SJL/J)F1 mice [3]; grades 1-5): 3.4
